# Data: patent US20230175033A1, “PRODUCTION OF JASMONATES IN FILAMENTOUS FUNGI” (Sumitomo Chemical Company, Limited, priority 2020, published 2023)
# Where two headings read alike, the source gives them in different places.
# Legend:
# [1] = test system: Lasiodiplodia iranensis DWH-2; assay: JA production by Lasiodiplodia iranensis cultures under shaking conditions, JA content by HPLC; assay type: cell-based
# [2] = test system: Lasiodiplodia iranensis DWH-2; assay: Morphology of Lasiodiplodia iranensis cultures under shaking conditions; assay type: cell-based; settings: shaking 250 rpm, 30° C.
# [3] = shaker 250 rpm, 30° C., eight days, 200 mg/L IAA and sodium butyrate, 100 mg/L SA and ASA, 10 mg/L VA, 2 mM H2O2
Structure (SMILES),"Titer (mg/L), production of JA with a jasmonate production elicitor [1, 3] [mg/L]",other results
"CC(=O)Oc1ccccc1C(=O)O [ASA, acetylsalicylic acid]",100,–
"OO [H2O2, hydrogen peroxide]",160,–
"O=C([O-])Cc1c[nH]c2ccccc12.[Na+] [IAA, Indole-3-acetic acid sodium salt]",400,–
"O=C([O-])c1ccccc1O.[Na+] [SA, salicylic acid sodium salt]",–,"Titer (mg/L), production of JA with a jasmonate production elicitor [1]: 150 mg/L"
"CCCC(=O)[O-].[Na+] [Sodium butyrate, sodium butyrate]",–,"Titer (mg/L), production of JA with a jasmonate production elicitor [1]: 175 mg/L"
"CCCC(CCC)C(=O)[O-].[Na+] [VA, valproic acid sodium salt]",350,–
CC(C)=CCCC(C)=CCCC(C)=CCO [farnesol],–,"effect on fungal morphology ([2]; 100 mg/L farnesol, nine days): induced mycelial aggregation"
OCCc1ccc(O)cc1 [tyrosol],–,"effect on fungal morphology ([2]; 100 mg/L tyrosol, seven days): induced mycelial aggregation"
